Laboratory results from patent publication US20230117920A1, “Library Construction Method, Cyclic Peptide, FXIIa Binder and IFNGR1 Binder” (The University of Tokyo, priority 2019, published 2023).
Read-outs that look alike come from different tables or passages of the source. Starred links: 1 amine or outer side, 2 acyl side, 3 side chain; linkers in the order of their positions; H or OH if unused. Positions of bridges follow the written chain, without caps; N, C: chain ends. Non-standard residues stand in square brackets, D forms with d. Residues, ends and D or L forms follow the SMILES beside them. No end group written: not given here. ACHC(1S,2S) = O=C([C@H]1CCCC[C@@H]1N[*:1])[*:2]; X1 = O=C([C@@H]1CCC[C@H]1N[*:1])[*:2]; X2 = O=C([C@H]1CCC[C@@H]1N[*:1])[*:2]

B1: F1A (peptide)
peptide: {CH2CO}-[dY]NDRSTRARLVA[dC]
modifications: thioether N-13
notes: also called negative control peptide of F1; Ala mutant F1A
B2: F3 (peptide)
peptide: {CH2CO}-[dY]FAYDRR[ACHC(1S,2S)]LSNN[ACHC(1S,2S)]RNY[dC]
modifications: thioether N-17
notes: Made by solid-phase synthesis with the C-terminal TGTGT linker omitted; The formula f3 in the summary and claims ends in RNT; also called yFAYDRR1LSNN1RNYc
B3: F4 (peptide)
peptide: YRYTXNRLFXNAC
modifications: not fully specified; 1: D-Tyr, N-acetylated (from N-chloroacetyl-D-Tyr), thioether to D-Cys 13 (cyclic peptide); 5 and 10 (X, printed '1'): (1S,2S)-2-ACHC; 13: D-Cys
B4: F2 (peptide)
peptide: YPRLFNXSYLRRC
modifications: not fully specified; 1: D-Tyr, N-acetylated (from N-chloroacetyl-D-Tyr), thioether to D-Cys 13 (cyclic peptide); 7 (X, printed '2'): (1R,2R)-2-ACPC; 13: D-Cys
B5: F1 (peptide)
peptide: YNDRSTRXRLVAC
modifications: not fully specified; 1: D-Tyr, N-acetylated (from N-chloroacetyl-D-Tyr), the acetyl joined by a thioether bond to the thiol of D-Cys 13 (cyclic peptide); 8 (X, printed '2'): (1R,2R)-2-ACPC; 13: D-Cys
B6: F2A (peptide)
peptide: {CH2CO}-[dY]PRLFNASYLRR[dC]
modifications: thioether N-13
notes: also called negative control peptide of F2

How the values were obtained:
FXIIa [1] = biological target: T1, FXIIa (Homo sapiens, UniProt P00748); settings: reference protein inhibitor against FXIIa; cited from earlier work
[2] = biological target: interferon γ receptor 1 (IFNGR1) (Homo sapiens, UniProt P15260); assay: biochemical; settings: for kon: read-out: ka
[3] = biological target: human factor XIIa (FXIIa) (Homo sapiens, UniProt P00748); assay: biochemical; settings: for kon: read-out: ka
FXIIa [4] = biological target: T1, FXIIa; assay: biochemical
[5] = biological target: T2, human factor XIIa (activated blood coagulation factor XII) (human, UniProt P00748 20-615, limits assumed, biotinylated (site not stated)); assay: SPR, Biacore T200, 25 C, single cycle kinetics, 1:1 model
T2 construct: The construct used for SPR, for the Ki assay and for the cocrystal is not described; The same entry is used for all three; also called FXIIa; FXIIA
T2 sequence (looked up): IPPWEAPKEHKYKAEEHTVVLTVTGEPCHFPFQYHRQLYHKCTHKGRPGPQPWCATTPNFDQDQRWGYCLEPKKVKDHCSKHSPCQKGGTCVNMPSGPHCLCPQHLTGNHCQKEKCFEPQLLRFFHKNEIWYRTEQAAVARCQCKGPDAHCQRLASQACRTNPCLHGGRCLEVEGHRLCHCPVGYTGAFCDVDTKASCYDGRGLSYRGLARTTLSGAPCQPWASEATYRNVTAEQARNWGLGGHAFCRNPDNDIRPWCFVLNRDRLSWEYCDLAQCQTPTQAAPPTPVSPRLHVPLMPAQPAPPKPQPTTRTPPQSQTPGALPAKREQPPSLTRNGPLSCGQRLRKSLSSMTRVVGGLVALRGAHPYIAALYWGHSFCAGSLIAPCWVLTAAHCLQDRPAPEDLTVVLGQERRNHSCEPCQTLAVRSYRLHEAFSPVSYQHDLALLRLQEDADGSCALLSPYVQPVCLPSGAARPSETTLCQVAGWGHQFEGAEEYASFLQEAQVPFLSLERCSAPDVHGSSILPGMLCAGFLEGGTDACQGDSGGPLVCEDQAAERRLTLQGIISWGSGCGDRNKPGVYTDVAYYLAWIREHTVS

[6] = biological target: T2, human factor XIIa (activated blood …); assay: inhibition of FXIIa cleavage of the chromogenic substrate S-2302 (H-D-Pro-Phe-Arg-pNA), absorbance at 405 nm
[7] = biological target: human factor XIIa (activated blood coagulation factor XII) (human) (UniProt P00748); assay: SPR, Biacore T200, 25 C, single cycle kinetics, 1:1 model
[8] = biological target: T2, human factor XIIa (activated blood …); assay: SPR, Biacore T200, 25 C, single cycle kinetics, 1:1 model; peptide F2A (drawing CHEM-US-00044, read number 0), control variant of F2

Molecule | Kd [2] | kon [2] | kon [3] | other results
corn trypsin inhibitor [CTI] | – | – | – | Ki (FXIIa [1]): 24 nM
CC(C)C[C@@H]1NC(=O)[C@H](CO)NC(=O)[C@H](Cc2ccccc2)NC(=O)[C@@H](Cc2ccc(O)cc2)NC(=O)CSC[C@H](C(=O)NCC(N)=O)NC(=O)CNC(=O)[C@H](CCCNC(=N)N)NC(=O)[C@H](CO)NC(=O)[C@H](CCCNC(=N)N)NC(=O)[C@H](CC(N)=O)NC(=O)[C@H](Cc2ccccc2)NC(=O)[C@H](CO)NC(=O)[C@@H]2CCC[C@H]2NC(=O)[C@H](CCCNC(=N)N)NC1=O [I1-4] ({CH2CO}-[dY]FSLR[X1]SFNRSRG[dC]G-NH2; thioether N-14) | 5.76 nM | 3.39e+06 M⁻¹ s⁻¹ | – | –
CC(C)C[C@@H]1NC(=O)[C@H](C)NC(=O)[C@H](Cc2ccccc2)NC(=O)[C@@H](Cc2ccc(O)cc2)NC(=O)CSC[C@H](C(=O)NCC(N)=O)NC(=O)[C@H](CCCNC(=N)N)NC(=O)[C@H](CCCNC(=N)N)NC(=O)[C@H](CC(N)=O)NC(=O)[C@H]2CCCC[C@@H]2NC(=O)[C@H](CCCNC(=N)N)NC(=O)[C@@H]2CCC[C@H]2NC(=O)[C@H](CC(N)=O)NC1=O [I1-5] ({CH2CO}-[dY]FALN[X1]R[ACHC(1S,2S)]NRR[dC]G-NH2; thioether N-12) | 336 nM | 3.01e+06 M⁻¹ s⁻¹ | – | –
CC(C)C[C@@H]1NC(=O)[C@H](Cc2ccc(O)cc2)NC(=O)[C@H](CO)NC(=O)[C@H](C)NC(=O)[C@H](CC(N)=O)NC(=O)[C@H](Cc2ccccc2)NC(=O)[C@H](CC(C)C)NC(=O)[C@H](CCCNC(=N)N)NC(=O)[C@@H]2CCCN2C(=O)[C@@H](Cc2ccc(O)cc2)NC(=O)CSC[C@H](C(N)=O)NC(=O)[C@H](CCCNC(=N)N)NC(=O)[C@H](CCCNC(=N)N)NC1=O [F2A] ({CH2CO}-[dY]PRLFNASYLRR[dC]-NH2; thioether N-13) | – | – | 4.75e+06 M⁻¹ s⁻¹ | –
CC(C)C[C@@H]1NC(=O)[C@H]2CCCC[C@@H]2NC(=O)[C@H](CCCNC(=N)N)NC(=O)[C@H](CCCNC(=N)N)NC(=O)[C@H](CC(=O)O)NC(=O)[C@H](Cc2ccc(O)cc2)NC(=O)[C@H](C)NC(=O)[C@H](Cc2ccccc2)NC(=O)[C@@H](Cc2ccc(O)cc2)NC(=O)CSC[C@H](C(=O)NCC(N)=O)NC(=O)[C@H](Cc2ccc(O)cc2)NC(=O)[C@H](CC(N)=O)NC(=O)[C@H](CCCNC(=N)N)NC(=O)[C@H]2CCCC[C@@H]2NC(=O)[C@H](CC(N)=O)NC(=O)[C@H](CC(N)=O)NC(=O)[C@H](CO)NC1=O [F3] ({CH2CO}-[dY]FAYDRR[ACHC(1S,2S)]LSNN[ACHC(1S,2S)]RNY[dC]G-NH2; thioether N-17) | – | – | 1.59e+06 M⁻¹ s⁻¹ | –
CC(C)C[C@@H]1NC(=O)[C@H](CC(N)=O)NC(=O)[C@H](Cc2ccc(O)cc2)NC(=O)[C@H](CCCNC(=N)N)NC(=O)[C@@H]2CCCN2C(=O)[C@@H](Cc2ccc(O)cc2)NC(=O)CSC[C@H](C(=O)NCC(N)=O)NC(=O)[C@H](CC(N)=O)NC(=O)[C@@H]2CCC[C@H]2NC(=O)[C@H](Cc2ccccc2)NC(=O)[C@H](CCCNC(=N)N)NC(=O)[C@@H]2CCCN2C(=O)[C@H](CO)NC(=O)[C@H](C)NC(=O)CNC(=O)[C@H]2CCC[C@@H]2NC1=O [I2] ({CH2CO}-[dY]PRYNL[X2]GASPRF[X1]N[dC]G-NH2; thioether N-16) | 12.3 nM | 1.98e+06 M⁻¹ s⁻¹ | – | –
CC(C)C[C@@H]1NC(=O)[C@H](CCCNC(=N)N)NC(=O)[C@H](C)NC(=O)[C@H](CCCNC(=N)N)NC(=O)[C@H]([C@@H](C)O)NC(=O)[C@H](CO)NC(=O)[C@H](CCCNC(=N)N)NC(=O)[C@H](CC(=O)O)NC(=O)[C@H](CC(N)=O)NC(=O)[C@@H](Cc2ccc(O)cc2)NC(=O)CSC[C@H](C(N)=O)NC(=O)[C@H](C)NC(=O)[C@H](C(C)C)NC1=O [F1A] ({CH2CO}-[dY]NDRSTRARLVA[dC]-NH2; thioether N-13) | – | – | 580000 M⁻¹ s⁻¹ | –
CC(C)C[C@@H]1NC(=O)[C@H](CCCNC(=N)N)NC(=O)[C@H](CC(N)=O)NC(=O)[C@H]2CCCC[C@@H]2NC(=O)[C@H]([C@@H](C)O)NC(=O)[C@H](Cc2ccc(O)cc2)NC(=O)[C@H](CCCNC(=N)N)NC(=O)[C@@H](Cc2ccc(O)cc2)NC(=O)CSC[C@H](C(=O)NCC(N)=O)NC(=O)[C@H](C)NC(=O)[C@H](CC(N)=O)NC(=O)[C@H]2CCCC[C@@H]2NC(=O)[C@H](Cc2ccccc2)NC1=O [F4] ({CH2CO}-[dY]RYT[ACHC(1S,2S)]NRLF[ACHC(1S,2S)]NA[dC]G-NH2; thioether N-13) | – | – | 550000 M⁻¹ s⁻¹ | Ki (FXIIa [4]): 4.32 nM; Kd [3]: 15.5 nM
CC(C)C[C@@H]1NC(=O)[C@H](CCCNC(=N)N)NC(=O)[C@@H]2CCC[C@H]2NC(=O)[C@H](CCCNC(=N)N)NC(=O)[C@H]([C@@H](C)O)NC(=O)[C@H](CO)NC(=O)[C@H](CCCNC(=N)N)NC(=O)[C@H](CC(=O)O)NC(=O)[C@H](CC(N)=O)NC(=O)[C@@H](Cc2ccc(O)cc2)NC(=O)CSC[C@H](C(=O)NCC(N)=O)NC(=O)[C@H](C)NC(=O)[C@H](C(C)C)NC1=O [F1] ({CH2CO}-[dY]NDRSTR[X1]RLVA[dC]G-NH2; thioether N-13) | – | – | 2.74e+06 M⁻¹ s⁻¹ | Ki (FXIIa [4]): 22.1 nM; Kd [3]: 8.21 nM
CC(C)C[C@@H]1NC(=O)CNC(=O)[C@H](C(C)C)NC(=O)[C@@H](Cc2ccc(O)cc2)NC(=O)CSC[C@H](C(=O)NCC(N)=O)NC(=O)[C@H]([C@@H](C)O)NC(=O)[C@H](CCCNC(=N)N)NC(=O)[C@H](CC(N)=O)NC(=O)[C@H](CC(C)C)NC(=O)[C@H](CO)NC(=O)[C@@H]2CCC[C@H]2NC(=O)[C@H](CC(N)=O)NC1=O [I1-3] ({CH2CO}-[dY]VGLN[X1]SLNRT[dC]G-NH2; thioether N-12) | 150 nM | 1.41e+06 M⁻¹ s⁻¹ | – | –
CC(C)[C@@H]1NC(=O)CNC(=O)[C@H](Cc2ccccc2)NC(=O)[C@@H](Cc2ccc(O)cc2)NC(=O)CSC[C@H](C(=O)NCC(N)=O)NC(=O)[C@H]([C@@H](C)O)NC(=O)[C@H](CCCNC(=N)N)NC(=O)[C@H](CC(N)=O)NC(=O)[C@H](Cc2ccc(O)cc2)NC(=O)[C@H](Cc2ccccc2)NC(=O)[C@@H]2CCC[C@H]2NC(=O)[C@H](CCCNC(=N)N)NC1=O [I1-1] ({CH2CO}-[dY]FGVR[X1]FYNRT[dC]G-NH2; thioether N-12) | 5 nM | 1.74e+06 M⁻¹ s⁻¹ | – | –
CC(C)[C@@H]1NC(=O)CNC(=O)[C@H](Cc2ccccc2)NC(=O)[C@@H](Cc2ccc(O)cc2)NC(=O)CSC[C@H](C(=O)NCC(N)=O)NC(=O)[C@H]([C@@H](C)O)NC(=O)[C@H](CCCNC(=N)N)NC(=O)[C@H](CC(N)=O)NC(=O)[C@H](Cc2ccc(O)cc2)NC(=O)[C@H](Cc2ccccc2)NC(=O)[C@@H]2CCC[C@H]2NC(=O)[C@H]2CCC[C@@H]2NC1=O [I1-6] ({CH2CO}-[dY]FGV[X2][X1]FYNRT[dC]G-NH2; thioether N-12) | 1.87 nM | 920000 M⁻¹ s⁻¹ | – | –
CC(C)C[C@@H]1NC(=O)[C@H](Cc2ccc(O)cc2)NC(=O)[C@H](CO)NC(=O)[C@@H]2CCC[C@H]2NC(=O)[C@H](CC(N)=O)NC(=O)[C@H](Cc2ccccc2)NC(=O)[C@H](CC(C)C)NC(=O)[C@H](CCCNC(=N)N)NC(=O)[C@@H]2CCCN2C(=O)[C@@H](Cc2ccc(O)cc2)NC(=O)CSC[C@H](C(=O)NCC(N)=O)NC(=O)[C@H](CCCNC(=N)N)NC(=O)[C@H](CCCNC(=N)N)NC1=O [F2] ({CH2CO}-[dY]PRLFN[X1]SYLRR[dC]G-NH2; thioether N-13) | – | – | 3.07e+07 M⁻¹ s⁻¹ | Ki (FXIIa [4]): 2.14 nM; Kd [3]: 0.58 nM
B1 | – | – | – | Kd [5]: 51.3 nM; koff [5]: 0.0297 s⁻¹
B2 | – | – | – | Kd [5]: 0.98 nM; koff [5]: 0.0016 s⁻¹; Ki [6]: 1.02 nM
B3 | – | – | – | koff [7]: 0.0085 s⁻¹
B4 | – | – | – | koff [7]: 0.0178 s⁻¹
B5 | – | – | – | koff [7]: 0.0225 s⁻¹
B6 | – | – | – | koff [5]: 0.438 s⁻¹; Kd [8]: 92.2 nM
